Tests used:
[1] = biological target: T1, Ephrin type-A receptor 1 (Homo sapiens) (UniProt P21709); assay: Inhibition of EPHA1 (unknown origin) assessed as remaining activity at 1 uM by Kinome scan method relative to control
T1 sequence (whole entry): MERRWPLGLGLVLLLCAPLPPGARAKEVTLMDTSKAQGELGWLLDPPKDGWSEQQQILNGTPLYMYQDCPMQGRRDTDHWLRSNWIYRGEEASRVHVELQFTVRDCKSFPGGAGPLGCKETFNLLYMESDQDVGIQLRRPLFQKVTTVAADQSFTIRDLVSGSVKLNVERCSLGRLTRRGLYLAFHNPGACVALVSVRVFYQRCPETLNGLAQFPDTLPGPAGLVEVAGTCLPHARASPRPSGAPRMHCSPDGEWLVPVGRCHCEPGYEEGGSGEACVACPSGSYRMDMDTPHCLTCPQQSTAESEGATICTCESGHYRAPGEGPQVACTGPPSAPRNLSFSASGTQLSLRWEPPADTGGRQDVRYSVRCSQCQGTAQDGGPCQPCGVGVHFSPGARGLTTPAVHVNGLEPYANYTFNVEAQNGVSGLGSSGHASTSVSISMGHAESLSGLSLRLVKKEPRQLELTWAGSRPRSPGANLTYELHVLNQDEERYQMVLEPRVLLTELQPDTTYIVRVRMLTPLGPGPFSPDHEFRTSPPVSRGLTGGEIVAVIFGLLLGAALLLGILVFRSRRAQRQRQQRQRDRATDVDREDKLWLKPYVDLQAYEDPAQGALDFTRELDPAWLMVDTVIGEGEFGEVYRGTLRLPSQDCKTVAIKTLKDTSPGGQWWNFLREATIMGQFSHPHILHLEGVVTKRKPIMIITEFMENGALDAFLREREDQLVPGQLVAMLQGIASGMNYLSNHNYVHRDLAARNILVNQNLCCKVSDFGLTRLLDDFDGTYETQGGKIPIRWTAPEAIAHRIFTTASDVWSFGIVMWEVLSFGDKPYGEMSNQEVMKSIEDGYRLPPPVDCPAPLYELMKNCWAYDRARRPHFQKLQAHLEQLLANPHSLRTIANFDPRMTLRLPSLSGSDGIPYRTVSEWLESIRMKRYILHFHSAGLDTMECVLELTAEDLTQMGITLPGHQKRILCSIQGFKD

[2] = biological target: Serine/threonine-protein kinase BRSK2 (Homo sapiens) (UniProt Q8IWQ3); assay: Inhibition of BRSK2 (unknown origin) assessed as remaining activity at 1 uM by Kinome scan method relative to control
[3] = biological target: Fibroblast growth factor receptor 2 (Homo sapiens) (UniProt P21802); assay: Inhibition of FGFR2 (unknown origin) assessed as remaining activity at 1 uM by Kinome scan method relative to control
[4] = biological target: Dual specificity testis-specific protein kinase 1 (Homo sapiens) (UniProt Q15569); assay: Inhibition of TESK1 (unknown origin) assessed as remaining activity at 1 uM by Kinome scan method relative to control
[5] = biological target: Serine/threonine-protein kinase N2 (Homo sapiens) (UniProt Q16513); assay: Inhibition of PKN2 (unknown origin) assessed as remaining activity at 1 uM by Kinome scan method relative to control
[6] = biological target: T2, MAP/microtubule affinity-regulating kinase 4 (Homo sapiens) (UniProt Q96L34); assay: Inhibition of MARK4 (unknown origin) assessed as remaining activity at 1 uM by Kinome scan method relative to control
T2 sequence (whole entry): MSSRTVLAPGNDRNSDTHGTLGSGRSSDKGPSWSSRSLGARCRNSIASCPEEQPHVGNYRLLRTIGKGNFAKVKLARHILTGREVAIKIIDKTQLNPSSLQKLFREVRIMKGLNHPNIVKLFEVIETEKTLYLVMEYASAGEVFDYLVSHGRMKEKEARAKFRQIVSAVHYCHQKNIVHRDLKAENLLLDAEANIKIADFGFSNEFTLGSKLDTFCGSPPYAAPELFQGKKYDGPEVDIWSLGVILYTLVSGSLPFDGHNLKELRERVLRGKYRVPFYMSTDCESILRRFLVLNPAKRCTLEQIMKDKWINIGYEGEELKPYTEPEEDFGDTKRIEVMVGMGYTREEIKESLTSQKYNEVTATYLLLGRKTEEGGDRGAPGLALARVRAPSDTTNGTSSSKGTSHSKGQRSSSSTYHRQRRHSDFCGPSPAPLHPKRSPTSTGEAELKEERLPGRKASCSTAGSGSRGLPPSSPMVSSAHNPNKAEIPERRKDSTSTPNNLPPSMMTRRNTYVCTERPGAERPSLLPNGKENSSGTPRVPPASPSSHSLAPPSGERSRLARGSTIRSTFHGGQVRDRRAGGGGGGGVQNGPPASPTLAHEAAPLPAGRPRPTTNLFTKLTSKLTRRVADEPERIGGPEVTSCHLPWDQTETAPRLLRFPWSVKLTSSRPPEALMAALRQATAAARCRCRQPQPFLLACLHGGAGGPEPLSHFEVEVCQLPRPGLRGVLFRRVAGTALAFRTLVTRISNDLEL

[7] = biological target: Mitogen-activated protein kinase 7 (Homo sapiens) (UniProt Q13164); assay: Inhibition of ERK5 (unknown origin) assessed as remaining activity at 1 uM by Kinome scan method relative to control
[8] = biological target: Vascular endothelial growth factor receptor 1 (Homo sapiens) (UniProt P17948); assay: Inhibition of FLT1 (unknown origin) assessed as remaining activity at 1 uM by Kinome scan method relative to control
[9] = biological target: Cyclin-dependent kinase 11B (Homo sapiens) (UniProt P21127); assay: Inhibition of CDC2L1 (unknown origin) assessed as remaining activity at 1 uM by Kinome scan method relative to control
[10] = biological target: Phosphorylase b kinase gamma catalytic chain, skeletal muscle/heart isoform (Homo sapiens) (UniProt Q16816); assay: Inhibition of PHKG1 (unknown origin) assessed as remaining activity at 1 uM by Kinome scan method relative to control
[11] = biological target: Phosphatidylinositol 5-phosphate 4-kinase type-2 beta (Homo sapiens) (UniProt P78356); assay: Inhibition of PIP5K2B (unknown origin) assessed as remaining activity at 1 uM by Kinome scan method relative to control
[12] = biological target: Cyclin-dependent kinase 3 (Homo sapiens) (UniProt Q00526); assay: Inhibition of CDK3 (unknown origin) assessed as remaining activity at 1 uM by Kinome scan method relative to control
[13] = biological target: Aurora kinase B (Homo sapiens) (UniProt Q96GD4); assay: Inhibition of AURKB (unknown origin) assessed as remaining activity at 1 uM by Kinome scan method relative to control
[14] = biological target: SRSF protein kinase 2 (Homo sapiens) (UniProt P78362); assay: Inhibition of SRPK2 (unknown origin) assessed as remaining activity at 1 uM by Kinome scan method relative to control
[15] = biological target: Casein kinase II subunit alpha (Homo sapiens) (UniProt P68400); assay: Inhibition of CSNK2A1 (unknown origin) assessed as remaining activity at 1 uM by Kinome scan method relative to control
Casein kinase II subunit alpha (Homo sapiens), sequence (P68400 whole entry, looked up): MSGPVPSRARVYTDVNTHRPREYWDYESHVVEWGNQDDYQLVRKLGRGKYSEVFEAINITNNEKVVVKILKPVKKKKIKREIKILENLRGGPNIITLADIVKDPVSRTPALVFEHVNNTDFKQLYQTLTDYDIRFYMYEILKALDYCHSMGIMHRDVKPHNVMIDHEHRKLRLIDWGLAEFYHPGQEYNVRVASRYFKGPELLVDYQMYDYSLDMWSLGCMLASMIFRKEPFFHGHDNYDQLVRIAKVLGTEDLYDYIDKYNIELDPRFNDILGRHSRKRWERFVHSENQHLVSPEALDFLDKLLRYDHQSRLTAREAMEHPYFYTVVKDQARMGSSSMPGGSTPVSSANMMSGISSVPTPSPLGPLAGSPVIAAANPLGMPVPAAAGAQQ

Phosphorylase b kinase gamma catalytic chain, skeletal muscle/heart isoform (Homo sapiens), sequence (Q16816 whole entry, looked up, canonical isoform): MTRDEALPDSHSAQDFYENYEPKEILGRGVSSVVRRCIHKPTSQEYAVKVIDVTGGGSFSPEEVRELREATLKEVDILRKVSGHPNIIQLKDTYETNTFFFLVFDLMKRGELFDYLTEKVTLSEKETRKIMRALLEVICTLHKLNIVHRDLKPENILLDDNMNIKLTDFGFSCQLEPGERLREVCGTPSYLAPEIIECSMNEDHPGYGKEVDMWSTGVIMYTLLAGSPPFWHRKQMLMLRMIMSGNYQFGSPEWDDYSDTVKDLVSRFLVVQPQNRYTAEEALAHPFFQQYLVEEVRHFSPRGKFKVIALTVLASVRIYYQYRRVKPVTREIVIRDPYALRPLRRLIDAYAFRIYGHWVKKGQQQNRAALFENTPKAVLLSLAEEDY
Cyclin-dependent kinase 3 (Homo sapiens), sequence (Q00526 whole entry, looked up): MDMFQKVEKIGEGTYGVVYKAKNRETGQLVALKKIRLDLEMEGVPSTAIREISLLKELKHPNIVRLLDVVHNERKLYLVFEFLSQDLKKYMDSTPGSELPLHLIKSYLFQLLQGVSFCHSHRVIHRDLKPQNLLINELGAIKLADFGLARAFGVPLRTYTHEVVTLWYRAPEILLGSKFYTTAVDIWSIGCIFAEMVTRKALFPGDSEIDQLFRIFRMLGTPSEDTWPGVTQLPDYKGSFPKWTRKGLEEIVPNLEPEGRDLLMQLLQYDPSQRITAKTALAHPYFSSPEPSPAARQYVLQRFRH
Mitogen-activated protein kinase 7 (Homo sapiens), sequence (Q13164 2-816 limits assumed): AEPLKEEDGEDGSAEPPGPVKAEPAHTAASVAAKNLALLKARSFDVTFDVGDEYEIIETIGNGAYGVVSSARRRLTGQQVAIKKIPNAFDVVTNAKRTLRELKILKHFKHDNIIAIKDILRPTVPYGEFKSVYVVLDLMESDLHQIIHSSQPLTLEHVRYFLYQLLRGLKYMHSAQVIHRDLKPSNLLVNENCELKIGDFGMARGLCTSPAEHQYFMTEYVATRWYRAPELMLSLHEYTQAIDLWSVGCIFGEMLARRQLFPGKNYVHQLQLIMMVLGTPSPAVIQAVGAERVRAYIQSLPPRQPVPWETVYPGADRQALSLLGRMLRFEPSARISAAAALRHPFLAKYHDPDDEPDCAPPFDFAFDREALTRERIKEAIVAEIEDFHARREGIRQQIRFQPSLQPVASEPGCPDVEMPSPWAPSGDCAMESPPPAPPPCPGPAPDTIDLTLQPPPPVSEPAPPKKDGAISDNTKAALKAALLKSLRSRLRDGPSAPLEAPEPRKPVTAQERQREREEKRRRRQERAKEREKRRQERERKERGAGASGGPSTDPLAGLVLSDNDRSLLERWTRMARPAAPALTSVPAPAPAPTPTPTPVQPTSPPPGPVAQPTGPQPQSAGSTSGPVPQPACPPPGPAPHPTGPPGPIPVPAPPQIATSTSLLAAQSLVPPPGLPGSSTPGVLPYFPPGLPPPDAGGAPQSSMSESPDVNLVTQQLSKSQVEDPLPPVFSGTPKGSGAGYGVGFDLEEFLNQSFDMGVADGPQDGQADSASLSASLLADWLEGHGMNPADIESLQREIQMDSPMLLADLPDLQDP
Aurora kinase B (Homo sapiens), sequence (Q96GD4 whole entry): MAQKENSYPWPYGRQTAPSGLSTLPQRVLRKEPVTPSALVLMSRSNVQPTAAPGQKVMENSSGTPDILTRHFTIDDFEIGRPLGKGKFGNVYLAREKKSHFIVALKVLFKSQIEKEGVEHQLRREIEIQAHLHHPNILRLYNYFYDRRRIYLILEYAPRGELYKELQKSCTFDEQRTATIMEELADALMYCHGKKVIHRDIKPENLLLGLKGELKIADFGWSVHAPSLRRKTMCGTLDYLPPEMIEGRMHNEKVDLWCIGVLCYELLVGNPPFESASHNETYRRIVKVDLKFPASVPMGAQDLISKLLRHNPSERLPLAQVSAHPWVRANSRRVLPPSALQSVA
Vascular endothelial growth factor receptor 1 (Homo sapiens), sequence (P17948 whole entry): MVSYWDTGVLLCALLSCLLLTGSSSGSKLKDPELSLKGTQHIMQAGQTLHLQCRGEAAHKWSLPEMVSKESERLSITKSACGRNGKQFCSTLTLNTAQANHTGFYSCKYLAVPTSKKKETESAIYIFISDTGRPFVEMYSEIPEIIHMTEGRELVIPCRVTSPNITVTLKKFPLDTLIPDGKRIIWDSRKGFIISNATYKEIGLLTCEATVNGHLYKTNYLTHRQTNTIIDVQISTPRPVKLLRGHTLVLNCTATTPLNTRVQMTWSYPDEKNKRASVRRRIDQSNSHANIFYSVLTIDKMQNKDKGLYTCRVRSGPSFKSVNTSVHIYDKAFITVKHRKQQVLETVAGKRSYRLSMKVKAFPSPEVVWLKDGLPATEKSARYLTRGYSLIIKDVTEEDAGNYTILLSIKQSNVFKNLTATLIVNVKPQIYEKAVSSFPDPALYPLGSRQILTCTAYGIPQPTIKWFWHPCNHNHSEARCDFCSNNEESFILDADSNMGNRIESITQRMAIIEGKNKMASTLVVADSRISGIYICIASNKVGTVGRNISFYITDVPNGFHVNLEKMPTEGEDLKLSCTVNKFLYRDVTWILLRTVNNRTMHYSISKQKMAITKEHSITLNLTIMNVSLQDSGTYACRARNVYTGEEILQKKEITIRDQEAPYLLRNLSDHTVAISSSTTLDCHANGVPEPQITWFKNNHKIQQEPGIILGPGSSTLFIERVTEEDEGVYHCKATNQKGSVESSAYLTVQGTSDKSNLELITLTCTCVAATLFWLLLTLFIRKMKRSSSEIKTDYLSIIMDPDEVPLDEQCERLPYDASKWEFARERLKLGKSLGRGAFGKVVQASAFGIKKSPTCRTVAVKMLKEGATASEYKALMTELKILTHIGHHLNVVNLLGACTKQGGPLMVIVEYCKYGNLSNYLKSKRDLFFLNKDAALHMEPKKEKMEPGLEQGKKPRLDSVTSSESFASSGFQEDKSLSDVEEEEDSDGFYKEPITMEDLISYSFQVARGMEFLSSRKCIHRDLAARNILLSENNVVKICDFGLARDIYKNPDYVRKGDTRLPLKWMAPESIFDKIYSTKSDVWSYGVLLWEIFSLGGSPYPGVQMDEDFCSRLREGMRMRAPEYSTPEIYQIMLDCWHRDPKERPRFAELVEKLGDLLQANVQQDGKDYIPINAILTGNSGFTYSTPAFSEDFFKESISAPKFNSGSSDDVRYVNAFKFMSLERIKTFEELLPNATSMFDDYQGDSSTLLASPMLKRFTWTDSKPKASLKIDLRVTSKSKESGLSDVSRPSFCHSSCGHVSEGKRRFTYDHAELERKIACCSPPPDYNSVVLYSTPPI
Cyclin-dependent kinase 11B (Homo sapiens), sequence (P21127 whole entry, canonical isoform): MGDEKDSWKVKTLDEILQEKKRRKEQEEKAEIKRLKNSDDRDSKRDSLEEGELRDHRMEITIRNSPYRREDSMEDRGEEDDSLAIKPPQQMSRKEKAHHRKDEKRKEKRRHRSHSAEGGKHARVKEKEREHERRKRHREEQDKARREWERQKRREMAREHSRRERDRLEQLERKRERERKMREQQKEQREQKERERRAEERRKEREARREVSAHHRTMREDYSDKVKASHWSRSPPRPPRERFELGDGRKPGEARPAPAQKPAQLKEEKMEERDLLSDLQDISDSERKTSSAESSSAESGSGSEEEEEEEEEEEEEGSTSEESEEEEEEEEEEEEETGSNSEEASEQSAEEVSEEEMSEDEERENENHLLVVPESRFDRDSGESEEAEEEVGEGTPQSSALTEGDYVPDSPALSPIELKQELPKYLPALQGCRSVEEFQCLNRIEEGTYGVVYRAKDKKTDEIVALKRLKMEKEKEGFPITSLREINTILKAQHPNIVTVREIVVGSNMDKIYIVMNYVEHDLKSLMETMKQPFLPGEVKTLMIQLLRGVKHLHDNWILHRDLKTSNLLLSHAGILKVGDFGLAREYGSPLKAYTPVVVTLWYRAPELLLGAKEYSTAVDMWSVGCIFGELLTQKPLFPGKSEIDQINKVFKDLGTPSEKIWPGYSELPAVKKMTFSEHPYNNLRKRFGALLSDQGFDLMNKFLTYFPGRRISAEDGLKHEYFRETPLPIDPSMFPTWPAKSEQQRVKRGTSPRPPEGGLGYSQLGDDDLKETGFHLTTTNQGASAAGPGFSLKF
Dual specificity testis-specific protein kinase 1 (Homo sapiens), sequence (Q15569 whole entry, looked up): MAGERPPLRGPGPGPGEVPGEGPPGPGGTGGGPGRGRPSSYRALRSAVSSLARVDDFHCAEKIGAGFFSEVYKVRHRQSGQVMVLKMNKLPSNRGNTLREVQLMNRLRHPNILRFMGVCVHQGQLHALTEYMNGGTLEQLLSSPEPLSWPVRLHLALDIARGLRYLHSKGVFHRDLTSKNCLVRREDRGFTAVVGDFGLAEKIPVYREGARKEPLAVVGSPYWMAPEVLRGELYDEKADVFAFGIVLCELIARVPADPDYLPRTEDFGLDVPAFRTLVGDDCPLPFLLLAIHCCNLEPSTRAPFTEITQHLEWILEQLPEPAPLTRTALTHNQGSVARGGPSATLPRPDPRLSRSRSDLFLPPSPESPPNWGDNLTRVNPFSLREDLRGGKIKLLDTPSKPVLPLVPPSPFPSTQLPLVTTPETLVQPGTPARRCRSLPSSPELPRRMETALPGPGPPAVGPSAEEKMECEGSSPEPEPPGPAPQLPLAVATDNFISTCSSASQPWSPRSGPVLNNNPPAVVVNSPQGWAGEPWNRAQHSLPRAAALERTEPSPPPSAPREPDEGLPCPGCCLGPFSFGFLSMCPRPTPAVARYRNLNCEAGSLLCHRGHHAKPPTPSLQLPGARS

Row | Compound | Activity [1] [%] | Activity [2] [%] | Activity [3] [%] | Activity [4] [%] | Activity [5] [%] | Activity [6] [%] | Activity [7] [%] | Activity [8] [%] | Activity [9] [%] | Activity [10] [%] | Activity [11] [%] | Activity [12] [%] | Activity [13] [%] | Activity [14] [%] | Activity [15] [%]
1 | Nc1ccccc1Nc1ccc2c(c1)CCc1ccccc1C2=O | 98 | 91 | 91 | 90 | 89 | 90 | 96 | 85 | 94 | 92 | 86 | 85 | 97 | 79 | 86
2 | O=C1c2ccc(Nc3ccc(F)cc3F)cc2CCc2ccc(OC[C@H](O)CO)cc21 [Skepinone-L] | 91 | 94 | 98 | 100 | 84 | 100 | 99 | 82 | 99 | 97 | 100 | 96 | 96 | 95 | 96
